Columns and labels:
Assay type in all cases: cell-based, human
[1] = test system: induced BLEC Jurkat clones; test: Characterization of induced BLEC Jurkat clones, change in 460/530 ratio; conditions: PHA 10 microgram/ml, Thaps 1 microM, PMA 8 nM, Anti-CD3 2 microgram/ml
Description: These clones represent cells in which the trapping construct had integrated into a gene up regulated by PHA (T-cell) activation. Thus, these cells report the transcriptional activation of a gene upon cellular activation. Individual clones were identified and isolated by FACS using CCF2/AM to detect beta-lactamase activity. This clone isolation method, the induced sorting paradigm, used three sequential and independent stimulation and sorting protocols. […] These control cells were all green.
These isolated clones were expanded and tested for PHA inducibility by microscopic inspection with and without PHA stimulation in the presence of CCF2/AM. A total of fifty-five PHA inducible clones were identified using this procedure. The PHA inducibility for these clones ranged from a 1.5 to 40 fold change in the 460/530 ratio as compared to unstimulated control cells. Genomic Southern analysis using a DNA probe encoding beta-lactamase established that these clones represented 34 independent stable vector integration events. A list of clones obtained by the methods of the present invention and their characteristics is provided below in Table 6 and Table 7.
In addition to PHA inducible clones, Phobol 12-myristate 13-acetate (PMA) (Calbiochem), Thapsigargin (Thaps) (Calbiochem), and PMA+Thaps inducible clones were isolated using the general procedure set forth above using the indicated inducer rather than PHA. PMA is a specific activator of PKC (protein kinase C) and Thaps is a specific activator of intracellular calcium ion release (Thaps). These clones were isolated using three rounds of FACS using the general procedures described for the PHA inducible clones in Example 5. In such instances, other stimulants were substituted for PHA. PMA was provided at 8 nM, Thaps was provided at 1 microM. When these two stimulants were combined, their concentration was not changed. […] By using varied selection conditions, it is possible to isolate functionally distinct clones downstream of the desired signaling target.
Table 7 and Table 8 provide data similar to that provided in Table 5 for all of the clones obtained by the methods of Examples 5 to 7.

BLEC Jurkat clones = test: Specificity of activated BLEC Jurkat clones, relative beta-lactamase activity; conditions: PMA 8 nM, Thaps 1 microM, CsA 100 nM, PHA 10 microgram/ml
Description: (§1) Isolated clones from PHA-induced (Example 6) and PHA-repressed (Example 7) procedures described above were characterized to determine the specificity of their modulation and time required for induction or repression. Clones were stimulated with multiple activators or inhibitors over a one to twenty-four hour time interval.
(§2) In this study, PMA, which is a PKC activator, Thapsigargin which increases intracellular calcium, PHA which activates the T-cell receptor pathway, and cyclosporin A which is a clinically approved immunosuppressant that inhibits the Ca^2+ dependent phosphates calcineurin were investigated for their ability to modulate beta-lactamase expression in PHA induced and repressed BLEC clones.

[2] = test system: clone C2 (3×NFAT response element linked to beta-lactamase, M1 muscurinic receptor); test: Relative beta-lactamase activity of control clone C2; conditions: PMA 8 nM, Thaps 1 microM, CsA 100 nM, PHA 10 microgram/ml
Description: as §1, §2

C/C=C(/C)C(=O)O[C@H]1C(C)=C2[C@H]([C@@H]1OC(=O)CCCCCCC)[C@@](C)(OC(C)=O)C[C@H](OC(=O)CCC)[C@@]1(O)[C@H]2OC(=O)[C@@]1(C)O [Thaps, Thapsigargin]
Change in 460/530 ratio in the indicated clone by the following activator ([1]; clone J83PI1): 3-4
Change in 460/530 ratio in the indicated clone by the following activator ([1]; clone J83PI2): 1-2
Change in 460/530 ratio in the indicated clone by the following activator ([1]; clone J83PI3): 6-7
Change in 460/530 ratio in the indicated clone by the following activator ([1]; clone J83PI4): 3-4
Change in 460/530 ratio in the indicated clone by the following activator ([1]; clone J83PI6): 7-8
Change in 460/530 ratio in the indicated clone by the following activator ([1]; clone J83PI7): 2
Change in 460/530 ratio in the indicated clone by the following activator ([1]; clone J83PI8): 1-2
Change in 460/530 ratio in the indicated clone by the following activator ([1]; clone J83PI9): 5-6
Change in 460/530 ratio in the indicated clone by the following activator ([1]; clone J83PI13): 2-3
Change in 460/530 ratio in the indicated clone by the following activator ([1]; clone J83PI14): 2
Change in 460/530 ratio in the indicated clone by the following activator ([1]; clone J83PI15): 2
Change in 460/530 ratio in the indicated clone by the following activator ([1]; clone J83PI16): 1-2
Change in 460/530 ratio in the indicated clone by the following activator ([1]; clone J83PI18): 7-8
Change in 460/530 ratio in the indicated clone by the following activator ([1]; clone J83PI19): 1-2
Change in 460/530 ratio in the indicated clone by the following activator ([1]; clone J97PI1): 3-4
Change in 460/530 ratio in the indicated clone by the following activator ([1]; clone J97PI3): 1-2
Change in 460/530 ratio in the indicated clone by the following activator ([1]; clone J97PI4): 1-2
Change in 460/530 ratio in the indicated clone by the following activator ([1]; clone J97PI5): 1.9
Change in 460/530 ratio in the indicated clone by the following activator ([1]; clone J97PI6): 4-6
Change in 460/530 ratio in the indicated clone by the following activator ([1]; clone J97PI7): 4-5
Change in 460/530 ratio in the indicated clone by the following activator ([1]; clone J97PI8): 3-4
Change in 460/530 ratio in the indicated clone by the following activator ([1]; clone J97PI9): 4-5
Change in 460/530 ratio in the indicated clone by the following activator ([1]; clone J97PI10): 3-4
Change in 460/530 ratio in the indicated clone by the following activator ([1]; clone J97PI11): 5-6
Change in 460/530 ratio in the indicated clone by the following activator ([1]; clone J97PI12): 5-6
Change in 460/530 ratio in the indicated clone by the following activator ([1]; clone J97PI13): 5-6
Change in 460/530 ratio in the indicated clone by the following activator ([1]; clone J97PI14): 3-4
Change in 460/530 ratio in the indicated clone by the following activator ([1]; clone J97PI15): 3-4
Change in 460/530 ratio in the indicated clone by the following activator ([1]; clone J97PI17): 7-8
Change in 460/530 ratio in the indicated clone by the following activator ([1]; clone J97PI18): 3-4
Change in 460/530 ratio in the indicated clone by the following activator ([1]; clone J97PI19): 2-3
Change in 460/530 ratio in the indicated clone by the following activator ([1]; clone J97PI20): 2-3
Change in 460/530 ratio in the indicated clone by the following activator ([1]; clone J97PI21): 2-3
Change in 460/530 ratio in the indicated clone by the following activator ([1]; clone J97PI22): 5-7
Change in 460/530 ratio in the indicated clone by the following activator ([1]; clone J97PI23): 4-5
Change in 460/530 ratio in the indicated clone by the following activator ([1]; clone J97PI24): 3-4
Change in 460/530 ratio in the indicated clone by the following activator ([1]; clone J97PI116): 3-4
Change in 460/530 ratio in the indicated clone by the following activator ([1]; clone J325B11): 1-2
Change in 460/530 ratio in the indicated clone by the following activator ([1]; clone J326C9): 1-2
Change in 460/530 ratio in the indicated clone by the following activator ([1]; clone J326D4): 0
Change in 460/530 ratio in the indicated clone by the following activator ([1]; clone J389PM2): 3-4
Change in 460/530 ratio in the indicated clone by the following activator ([1]; clone J389PM3): 2-3
Change in 460/530 ratio in the indicated clone by the following activator ([1]; clone J389PM5): 3-4
Change in 460/530 ratio in the indicated clone by the following activator ([1]; clone J389PM7): 2-3
Change in 460/530 ratio in the indicated clone by the following activator ([1]; clone J389PM8): 3-4
Change in 460/530 ratio in the indicated clone by the following activator ([1]; clone J389PT4): 10
Change in 460/530 ratio in the indicated clone by the following activator ([1]; clone J389PTt): 3-4
Change in 460/530 ratio in the indicated clone by the following activator ([1]; clone J389TI1): 2-3
Change in 460/530 ratio in the indicated clone by the following activator ([1]; clone J389TI4): 3-4
Relative Beta-Lactamase Activity of the Clone by the Indicated Stimulus After 24 hours (% of maximum activated stimuli) (BLEC Jurkat clones; clone J32-6D4): 1-2%
Relative Beta-Lactamase Activity of the Clone by the Indicated Stimulus After 24 hours (% of maximum activated stimuli) (BLEC Jurkat clones; clone J83 97-PPTR2 (repressed paradigm)): 85%
Relative Beta-Lactamase Activity of the Clone by the Indicated Stimulus After 24 hours (% of maximum activated stimuli) (BLEC Jurkat clones; clone J83-PI9): 100%
Relative Beta-Lactamase Activity of the Clone by the Indicated Stimulus After 24 hours (% of maximum activated stimuli) (BLEC Jurkat clones; clone J83-PTI8): 100%
Relative Beta-Lactamase Activity of the Clone by the Indicated Stimulus After 24 hours (% of maximum activated stimuli) (BLEC Jurkat clones; clone J389-PTI4): 5%
Relative Beta-Lactamase Activity of the Clone by the Indicated Stimulus After 24 hours (% of maximum activated stimuli) [2]: 0%
